{
  "source": "ChEMBL document CHEMBL1201862",
  "about": "“PubChem BioAssay data set” (2004)",
  "key": {"[1]": {"assay": "P. falciparum late gametocyte killing, dose response, luminescence (AID 1117278);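 further: gametocytes exposed to compound for 24 hours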", "format": "functional, cell-based"}, "[2]": {"assay": "Jurkat T cell cytotoxicity, dose response, cytotoxicity control for P. falciparum gametocyte viability project, luminescence (AID 1117277);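 further: potency reflects loss of cellular ATP meaning fewer viable cells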", "format": "functional, cell-based"}, "[3]": {"biological_target": "NAD-dependent protein deacylase sirtuin-5, mitochondrial (Homo sapiens, UniProt Q9NXA8)", "sequence (Q9NXA8 whole entry)": "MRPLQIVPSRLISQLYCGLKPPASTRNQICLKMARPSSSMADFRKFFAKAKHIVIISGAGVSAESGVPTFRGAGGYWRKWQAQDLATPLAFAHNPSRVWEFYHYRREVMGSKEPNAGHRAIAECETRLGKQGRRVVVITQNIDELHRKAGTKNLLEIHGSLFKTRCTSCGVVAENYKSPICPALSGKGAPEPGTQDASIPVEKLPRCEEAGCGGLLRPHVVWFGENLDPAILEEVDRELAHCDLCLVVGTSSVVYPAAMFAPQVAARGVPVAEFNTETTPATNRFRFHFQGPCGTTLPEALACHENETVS", "assay": "SIRT5 desuccinylase inhibitors, dose response, biochemical, fluorescence imaging, cherry-pick, set 5 (AID 720591);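 further: desuccinylation of succinyl peptide AMC substrate read as fluorescence after trypsin release; potency of inhibitors that lower fluorescence and may act on trypsin instead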"}, "[4]": {"biological_target": "T1, Carboxy-terminal domain RNA polymerase II polypeptide A small phosphatase 1 (Homo sapiens, UniProt Q9GZU7)", "T1 sequence (Q9GZU7 whole entry)": "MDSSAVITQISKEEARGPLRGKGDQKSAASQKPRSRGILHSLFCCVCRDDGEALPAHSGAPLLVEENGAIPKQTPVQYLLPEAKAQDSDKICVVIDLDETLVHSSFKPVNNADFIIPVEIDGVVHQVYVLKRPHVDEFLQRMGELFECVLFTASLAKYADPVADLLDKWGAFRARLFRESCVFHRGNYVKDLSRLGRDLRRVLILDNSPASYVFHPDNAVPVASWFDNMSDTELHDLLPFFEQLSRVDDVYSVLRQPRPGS", "assay": "inhibitors of CTDSP1, concentration-response testing, biochemical assay, absorbance-based, actives from ultra-high-throughput screening (AID 540297)", "format": "functional"}, "[5]": {"biological_target": "T2, Low molecular weight phosphotyrosine protein phosphatase (Homo sapiens, UniProt P24666)", "T2 sequence (P24666 whole entry)": "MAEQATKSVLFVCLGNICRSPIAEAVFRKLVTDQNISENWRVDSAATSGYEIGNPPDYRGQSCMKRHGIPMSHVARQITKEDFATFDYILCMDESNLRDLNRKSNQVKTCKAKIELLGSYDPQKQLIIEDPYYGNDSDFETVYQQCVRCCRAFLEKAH", "format": "functional", "conditions": "read-out: IC50_Mean"}, "[6]": {"biological_target": "Endoplasmic reticulum aminopeptidase 1 (Homo sapiens, UniProt Q9NZ08)", "assay": "ERAP1 aminopeptidase inhibitors, dose response, biochemical, cherry-pick, set 2, plate reader (AID 743314)"}, "[7]": {"biological_target": "Diphosphomevalonate decarboxylase (Streptococcus pneumoniae serotype 2 (strain D39 / NCTC 7466), UniProt Q9FD53)", "sequence (Q9FD53 whole entry)": "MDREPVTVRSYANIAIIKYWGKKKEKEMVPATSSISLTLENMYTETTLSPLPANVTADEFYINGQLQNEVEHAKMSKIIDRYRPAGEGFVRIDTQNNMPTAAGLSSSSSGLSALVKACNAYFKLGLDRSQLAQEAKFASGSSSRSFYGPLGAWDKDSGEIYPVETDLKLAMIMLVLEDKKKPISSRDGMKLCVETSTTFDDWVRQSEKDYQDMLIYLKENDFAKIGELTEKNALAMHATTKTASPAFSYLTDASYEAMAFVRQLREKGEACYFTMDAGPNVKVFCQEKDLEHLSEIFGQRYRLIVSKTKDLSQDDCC", "assay": "S. pneumoniae DPM-DC inhibition retest, confirmation, biochemical, cuvette format, coupled NADH fluorescence (AID 1028)", "format": "functional"}, "[8]": {"biological_target": "T3, Mannose-6-phosphate isomerase (Homo sapiens, UniProt P34949)", "T3 sequence (P34949 whole entry)": "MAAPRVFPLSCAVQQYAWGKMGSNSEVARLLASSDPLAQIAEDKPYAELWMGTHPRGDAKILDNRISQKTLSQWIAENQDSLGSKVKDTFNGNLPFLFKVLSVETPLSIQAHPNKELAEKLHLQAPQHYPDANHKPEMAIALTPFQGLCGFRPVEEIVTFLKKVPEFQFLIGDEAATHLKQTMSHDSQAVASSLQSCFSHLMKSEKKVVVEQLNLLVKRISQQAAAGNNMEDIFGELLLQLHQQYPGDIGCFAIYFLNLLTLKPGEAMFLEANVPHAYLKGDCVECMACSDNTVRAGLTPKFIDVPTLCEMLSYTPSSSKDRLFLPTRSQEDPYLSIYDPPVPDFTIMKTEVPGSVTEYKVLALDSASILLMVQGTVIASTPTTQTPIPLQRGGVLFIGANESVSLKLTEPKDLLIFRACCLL", "assay": "human PMI inhibitors, high substrate, primary screen, biochemical, fluorescence intensity, high mannose 6-phosphate (AID 1220)"}, "[9]": {"biological_target": "E3 ubiquitin-protein ligase Mdm2 (Homo sapiens, UniProt Q00987)", "sequence (Q00987 whole entry)": "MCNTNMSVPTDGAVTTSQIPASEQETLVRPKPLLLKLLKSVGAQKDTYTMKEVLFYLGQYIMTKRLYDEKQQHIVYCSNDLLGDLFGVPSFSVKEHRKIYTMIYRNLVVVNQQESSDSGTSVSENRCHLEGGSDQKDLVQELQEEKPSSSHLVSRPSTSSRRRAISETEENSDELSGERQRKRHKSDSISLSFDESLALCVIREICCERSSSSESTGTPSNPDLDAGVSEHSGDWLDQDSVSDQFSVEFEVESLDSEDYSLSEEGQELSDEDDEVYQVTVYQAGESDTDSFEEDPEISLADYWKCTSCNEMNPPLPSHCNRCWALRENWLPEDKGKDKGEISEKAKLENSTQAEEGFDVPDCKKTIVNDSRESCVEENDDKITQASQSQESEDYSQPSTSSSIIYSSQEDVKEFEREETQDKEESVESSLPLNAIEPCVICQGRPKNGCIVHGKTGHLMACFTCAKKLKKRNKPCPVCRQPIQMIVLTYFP", "assay": "enhancers of MDM2-luciferase reporter signal, concentration-effect titration, project on inhibitors of MDM2 ubiquitin ligase, cellular assay, luminescent readout, 384-well plate format (AID 1394);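 further: MDM2 E3 inhibitors raise luminescence so EC50 is for signal enhancement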", "format": "functional"}, "Vero": {"test_system": "Vero", "assay": "host cell cytotoxicity of antiviral hits, dose response, cytotoxicity control for West Nile virus antiviral project, secondary assay (AID 1650)", "format": "functional", "conditions": "Chlorocebus sabaeus"}, "[10]": {"biological_target": "T4, Oxysterols receptor LXR-beta (Homo sapiens, UniProt P55055)", "T4 sequence (P55055 whole entry)": "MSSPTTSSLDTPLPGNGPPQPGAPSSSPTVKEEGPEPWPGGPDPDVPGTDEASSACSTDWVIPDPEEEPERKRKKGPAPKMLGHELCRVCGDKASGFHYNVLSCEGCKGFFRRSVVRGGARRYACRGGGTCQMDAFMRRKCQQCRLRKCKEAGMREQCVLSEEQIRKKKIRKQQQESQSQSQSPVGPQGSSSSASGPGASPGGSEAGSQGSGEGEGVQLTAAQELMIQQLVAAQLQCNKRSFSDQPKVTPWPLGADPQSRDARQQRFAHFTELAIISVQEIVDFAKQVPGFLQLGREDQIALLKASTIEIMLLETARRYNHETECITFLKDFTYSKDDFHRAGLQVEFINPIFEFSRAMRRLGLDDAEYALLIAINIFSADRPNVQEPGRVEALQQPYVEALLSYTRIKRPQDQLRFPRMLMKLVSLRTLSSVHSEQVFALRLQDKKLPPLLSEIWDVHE", "assay": "LXR agonists, Gal4 luciferase reporter, dose response, counter-screen for ssDAF-12 agonist project, cell-based, luminescence, HEK293, S. stercoralis campaign (AID 720737)", "format": "functional", "conditions": "read-out: IC50 (the source's name)"}, "[11]": {"assay": "Luminescence-based cell-based high throughput dose response assay to identify activators of the DAF-12 from the parasite S. stercoralis (ssDAF-12).", "format": "functional"}, "[12]": {"assay": "ADAM10 inhibitors, peptide cleavage, dose response, biochemical, QFRET (AID 743254);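 further: ADAM10 enzyme with the DM2 quenched FRET peptide as substrate; EDANS fluorescence gain as the protease cuts the substrate; inhibitor potency against ADAM10 proteolytic activity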"}, "[13]": {"biological_target": "Disintegrin and metalloproteinase domain-containing protein 17 (Homo sapiens, UniProt P78536)", "sequence (P78536 whole entry, the tested form may be a part)": "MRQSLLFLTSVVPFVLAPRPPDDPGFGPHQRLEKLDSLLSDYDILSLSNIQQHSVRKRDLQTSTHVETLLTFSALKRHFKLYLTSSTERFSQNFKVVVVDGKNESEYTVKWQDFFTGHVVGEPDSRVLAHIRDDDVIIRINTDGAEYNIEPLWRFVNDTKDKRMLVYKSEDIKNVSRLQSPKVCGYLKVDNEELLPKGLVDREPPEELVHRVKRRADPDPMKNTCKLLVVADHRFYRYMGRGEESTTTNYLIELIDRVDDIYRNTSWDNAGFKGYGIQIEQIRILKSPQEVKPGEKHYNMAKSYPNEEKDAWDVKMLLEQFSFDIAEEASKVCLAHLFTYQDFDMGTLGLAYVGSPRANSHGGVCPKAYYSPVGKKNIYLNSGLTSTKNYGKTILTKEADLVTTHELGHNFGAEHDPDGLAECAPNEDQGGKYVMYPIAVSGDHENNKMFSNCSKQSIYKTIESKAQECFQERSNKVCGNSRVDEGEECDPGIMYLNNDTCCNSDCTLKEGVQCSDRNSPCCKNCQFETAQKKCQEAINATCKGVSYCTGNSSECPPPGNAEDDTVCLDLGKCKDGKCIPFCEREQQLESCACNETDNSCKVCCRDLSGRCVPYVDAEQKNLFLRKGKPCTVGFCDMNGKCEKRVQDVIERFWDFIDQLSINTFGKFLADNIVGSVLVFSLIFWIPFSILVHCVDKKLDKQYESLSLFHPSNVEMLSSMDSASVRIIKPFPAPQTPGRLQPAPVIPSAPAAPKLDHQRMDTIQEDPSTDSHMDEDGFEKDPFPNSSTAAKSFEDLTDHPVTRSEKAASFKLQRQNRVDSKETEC", "assay": "ADAM17 protease inhibitors, dose response, counter-screen for ADAM10 exosite inhibitor project, biochemical, quenched FRET substrate (AID 743253)"}, "[14]": {"assay": "inhibitors of Vif binding to APOBEC3G peptide, primary screen, biochemical, TR-FRET, GST-Vif 1-94, biotin-A3G peptide, dose response retest (AID 1117319);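 further: inhibitors lower the FRET signal by blocking Vif and A3G binding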", "format": "functional"}, "Fatty acid synthase [15]": {"biological_target": "T5, Fatty acid synthase (Homo sapiens, UniProt P49327)", "T5 sequence (P49327 whole entry, the tested form may be a part)": "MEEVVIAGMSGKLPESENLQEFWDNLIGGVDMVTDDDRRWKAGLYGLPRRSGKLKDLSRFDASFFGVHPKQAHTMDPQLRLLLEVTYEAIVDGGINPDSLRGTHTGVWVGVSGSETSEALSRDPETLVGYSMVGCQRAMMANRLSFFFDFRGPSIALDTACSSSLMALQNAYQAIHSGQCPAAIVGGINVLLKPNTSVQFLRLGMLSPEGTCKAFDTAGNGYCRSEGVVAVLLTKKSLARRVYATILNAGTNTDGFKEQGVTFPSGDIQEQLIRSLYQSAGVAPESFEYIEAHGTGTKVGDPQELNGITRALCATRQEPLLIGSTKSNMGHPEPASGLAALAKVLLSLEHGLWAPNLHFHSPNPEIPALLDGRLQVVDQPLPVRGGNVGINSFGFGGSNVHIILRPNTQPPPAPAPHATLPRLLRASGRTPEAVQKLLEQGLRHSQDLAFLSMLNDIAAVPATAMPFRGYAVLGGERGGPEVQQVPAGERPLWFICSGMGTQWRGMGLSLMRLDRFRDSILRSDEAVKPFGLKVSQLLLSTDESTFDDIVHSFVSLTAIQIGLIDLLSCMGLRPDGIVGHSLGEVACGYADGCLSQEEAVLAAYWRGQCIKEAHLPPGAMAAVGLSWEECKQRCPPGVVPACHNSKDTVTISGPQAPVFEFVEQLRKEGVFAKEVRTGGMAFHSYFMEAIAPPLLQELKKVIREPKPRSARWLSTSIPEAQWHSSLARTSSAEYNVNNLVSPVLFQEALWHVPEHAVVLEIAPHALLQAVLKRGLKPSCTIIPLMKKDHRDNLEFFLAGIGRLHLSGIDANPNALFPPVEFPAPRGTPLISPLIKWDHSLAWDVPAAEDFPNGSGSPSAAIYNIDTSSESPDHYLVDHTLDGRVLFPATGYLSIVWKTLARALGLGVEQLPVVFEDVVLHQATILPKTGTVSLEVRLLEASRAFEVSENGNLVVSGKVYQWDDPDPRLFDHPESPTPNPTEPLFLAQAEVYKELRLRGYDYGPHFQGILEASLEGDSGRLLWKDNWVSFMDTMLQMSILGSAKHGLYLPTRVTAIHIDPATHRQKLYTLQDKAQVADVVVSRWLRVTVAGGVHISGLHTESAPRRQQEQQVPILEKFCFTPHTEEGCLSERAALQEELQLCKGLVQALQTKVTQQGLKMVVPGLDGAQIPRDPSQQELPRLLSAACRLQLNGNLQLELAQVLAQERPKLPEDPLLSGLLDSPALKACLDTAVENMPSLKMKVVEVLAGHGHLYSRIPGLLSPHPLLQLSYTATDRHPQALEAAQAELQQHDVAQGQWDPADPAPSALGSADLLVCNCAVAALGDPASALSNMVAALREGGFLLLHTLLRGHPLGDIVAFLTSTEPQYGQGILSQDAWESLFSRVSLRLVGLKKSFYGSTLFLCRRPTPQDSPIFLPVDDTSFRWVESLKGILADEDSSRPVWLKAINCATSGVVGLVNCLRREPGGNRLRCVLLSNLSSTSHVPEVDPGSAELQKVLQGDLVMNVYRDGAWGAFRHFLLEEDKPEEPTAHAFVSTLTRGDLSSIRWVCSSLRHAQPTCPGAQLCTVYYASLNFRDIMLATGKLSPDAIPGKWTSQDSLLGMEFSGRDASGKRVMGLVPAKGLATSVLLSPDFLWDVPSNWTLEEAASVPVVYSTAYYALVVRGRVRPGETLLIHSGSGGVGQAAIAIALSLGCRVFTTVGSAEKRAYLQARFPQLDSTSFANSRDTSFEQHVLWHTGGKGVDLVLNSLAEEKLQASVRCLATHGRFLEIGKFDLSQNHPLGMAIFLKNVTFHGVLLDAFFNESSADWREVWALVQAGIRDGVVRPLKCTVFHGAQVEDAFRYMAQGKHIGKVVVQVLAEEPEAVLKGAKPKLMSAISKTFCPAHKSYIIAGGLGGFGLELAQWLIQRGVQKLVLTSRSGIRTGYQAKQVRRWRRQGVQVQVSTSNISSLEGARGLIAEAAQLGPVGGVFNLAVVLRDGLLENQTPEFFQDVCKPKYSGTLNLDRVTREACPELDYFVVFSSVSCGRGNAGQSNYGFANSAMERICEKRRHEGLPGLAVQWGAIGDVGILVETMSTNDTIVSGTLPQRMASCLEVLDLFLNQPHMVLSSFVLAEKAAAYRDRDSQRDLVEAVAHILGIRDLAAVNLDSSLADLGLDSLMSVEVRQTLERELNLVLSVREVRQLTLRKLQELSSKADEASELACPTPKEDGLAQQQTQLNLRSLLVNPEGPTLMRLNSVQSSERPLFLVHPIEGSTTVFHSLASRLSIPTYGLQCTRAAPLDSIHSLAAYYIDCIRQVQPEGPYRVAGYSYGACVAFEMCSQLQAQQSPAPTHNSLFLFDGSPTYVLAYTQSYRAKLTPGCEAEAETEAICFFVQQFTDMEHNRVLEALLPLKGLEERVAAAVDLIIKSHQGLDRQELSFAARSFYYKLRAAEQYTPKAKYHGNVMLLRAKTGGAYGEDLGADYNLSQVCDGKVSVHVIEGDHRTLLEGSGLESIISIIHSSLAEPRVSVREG", "assay": "FAS thioesterase domain inhibitors, dose response, biochemical, kinetic fluorescence intensity (AID 624326);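 further: rate of fluorescence rise from hydrolysis of a fluorogenic O-methyl fluorescein ester substrate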", "format": "functional"}, "Fatty acid synthase [16]": {"biological_target": "T5, Fatty acid synthase", "assay": "FAS thioesterase domain inhibitors, dose response, biochemical, endpoint fluorescence intensity, uHTS hits (AID 624327);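 further: fluorescence from hydrolysis of an O-methyl fluorescein acyl ester substrate by the enzyme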", "format": "functional"}},
  "note": "Calls of active or inactive are those of the source.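 Wherever IC50 Mean is given: Dose-response confirmation assay measuring inhibition of LMPTP enzyme activity by fluorescence intensity read-out.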",
  "data": [
    {"smiles": "CCCn1c(SCC(=O)c2cc(OC)ccc2OC)nnc1-c1ccco1", "values": [
      {"measurement": "IC50", "setting": "[1]", "value": "> 109 µM (inactive)"},
      {"measurement": "IC50", "setting": "[2]", "value": "> 83.3 µM (inactive)"}
    ]},
    {"smiles": "CCSc1nnc(NC(=O)CSc2sc3c(O)cc(=O)[nH]c3c2C#N)s1", "values": [
      {"measurement": "AC50", "setting": "[3]", "value": "> 30 µM (inactive)"},
      {"measurement": "IC50", "setting": "[4]", "value": "3.21 µM (active)"},
      {"measurement": "IC50", "setting": "[5]", "value": "49.5 µM (inactive)"}
    ]},
    {"smiles": "Cc1c(CC(=O)N2CCN(C(=O)C3COc4ccccc4O3)CC2)c(=O)oc2cc(O)c(Cl)cc12", "note": "(configuration not stated)", "values": [
      {"measurement": "AC50", "setting": "[6]", "value": "3.11 µM (active)"}
    ]},
    {"smiles": "O=C(NC1CC1)c1cccc(-n2sc3ccccc3c2=O)c1", "values": [
      {"measurement": "IC50", "setting": "[7]", "value": "20.4 µM (active)"}
    ]},
    {"smiles": "On1c2c(c3c4nonc4ccc31)CCCC2", "values": [
      {"measurement": "IC50", "setting": "[8]", "value": "> 50 µM (not active)"}
    ]},
    {"smiles": "Cc1cc(OC(=O)c2ccccc2)c([N+](=O)[O-])c(O)n1", "values": [
      {"measurement": "EC50", "setting": "[9]", "value": "0.01 µM (not active)"}
    ]},
    {"smiles": "CCN(c1ccc(C)c(C)c1)S(=O)(=O)c1ccc2c(c1)CCN2C(=O)CCC(=O)O", "values": [
      {"measurement": "IC50", "setting": "[1]", "value": "> 109 µM (inactive)"},
      {"measurement": "IC50", "setting": "[2]", "value": "> 83.3 µM (inactive)"}
    ]},
    {"smiles": "Cc1ccccc1NC(=O)c1cc(C(=O)c2cc(Cl)ccc2O)cn(-c2ccccc2C)c1=O", "values": [
      {"measurement": "CC50", "setting": "Vero", "value": "64.8 µM (active)"}
    ]},
    {"smiles": "Cc1ccc(-c2cn3cccc(C)c3n2)cc1", "values": [
      {"measurement": "EC50", "setting": "[10]", "value": "> 67.5 µM (inactive)"},
      {"measurement": "IC50", "setting": "[11]", "value": "> 67.5 µM (inactive)"}
    ]},
    {"smiles": "Cc1ccc(C(=O)Nc2ccccc2C(=O)NCc2ccco2)cc1S(=O)(=O)N1CCCCC1", "values": [
      {"measurement": "IC50", "setting": "[12]", "value": "> 69.5 µM (inactive)"},
      {"measurement": "IC50", "setting": "[13]", "value": "> 69.5 µM (inactive)"}
    ]},
    {"smiles": "CC(=O)Cc1nsc(Nc2ccc3c(c2)OCCO3)n1", "values": [
      {"measurement": "IC50", "setting": "[14]", "value": "> 100 µM (active)"}
    ]},
    {"smiles": "O=C(NCCN1CCCC(O)C1)c1cc(COc2ccc(F)cc2Cl)on1", "note": "(configuration not stated)", "values": [
      {"measurement": "AC50", "setting": "[3]", "value": "> 30 µM (inactive)"}
    ]},
    {"smiles": "CN1CCN(C(=O)c2ccc(-n3sc4ccccc4c3=O)cc2)CC1", "values": [
      {"measurement": "IC50", "setting": "[7]", "value": "25.8 µM (active)"}
    ]},
    {"smiles": "COc1ccccc1-c1cc(SC)c(C#N)c(=O)o1", "values": [
      {"measurement": "IC50", "setting": "Fatty acid synthase [15]", "value": "10.9 µM (active)"},
      {"measurement": "EC50", "setting": "[9]", "value": "11.1 µM (active)"},
      {"measurement": "IC50", "setting": "Fatty acid synthase [16]", "value": "15.3 µM (active)"}
    ]}
  ]
}
